# From patent US11882836B2, “1-amino-1-cyclopropanecarboxylic acid mixtures and uses thereof” (Valent BioSciences LLC, priority 2020, dated 2024)
# Key:
# Format in all cases: in vivo
# [1] = system: Prunus (stone fruit) plants; assay: Bud break and shoot development of Prunus plants, ACC and CAN17 mixtures (Example 3); details: for Mean FW: harvest
# Experimental: (§1) To determine if the mixtures provided unexpected results, the observed combined efficacy (“OCE”) was divided by the expected combined efficacy (“ECE”) wherein the expected ECE is calculated by the Abbott method: ECE=A+B−(AB/100),
# (§2) wherein ECE is the expected combined efficacy and in which A and B are the speed of bud break relative to control, the number of buds broken per plant relative to control, shoot length relative to control or shoot weight relative to control given by the single active ingredients. If the ratio between the OCE of the mixture and the ECE of the mixture is greater than 1, then greater than expected interactions are present in the mixture. (Gisi, Synergistic Interaction of Fungicides in Mixtures, The American Phytopathological Society, 86:11, 1273-1279, 1996).
# (§3) To assess the ability of mixtures of the invention to promote and synchronize bud break, these mixtures were applied to Prunus (stone fruit) plants in the greenhouse and examined for bud break (initiation of growth) and subsequent shoot development. ACC, Dormex® (50% HC), and 17-0-0 fertilizers (CAN17), and mixtures thereof were each applied individually or sequentially (co-applied) to the shoots of Prunus plants. Plants were evaluated for bud break from 4-21 days after treatment.
# [2] = system: Prunus (stone fruit) plants; assay: Bud break and shoot development of Prunus (stone fruit) plants in the greenhouse (Example 2); details: for FW (grams): harvest, 28 days
# Experimental: as §1, §2
# as §3, with “HC), 15-0-0 (Erger®)” for “HC),”, “at 28” for “from 4-21”
# [3] = system: Prunus (stone fruit) plants; assay: Bud break and shoot development of Prunus plants, ACC and CAN15 mixtures (Example 4); details: for Mean FW: harvest
# Experimental: as §1
# If the ratio between the OCE of the mixture and the ECE of the mixture is greater than 1, then greater than expected interactions are present in the mixture.
# as §3, with “Dormex” for “Dormex®”, “15-0-0” for “17-0-0”, “(CAN15),” for “(CAN17),”, “plants.” for “plants. Plants were evaluated for bud break from 4-21 days after treatment.”
# Malus (apple) rootstocks = assay: Bud break and shoot development of Malus (apple) rootstocks after shoot application (Example 1); details: for Average Number of Broken Buds Per Malus Plant at Harvest / Average Number of Broken Nodes Per Centimeter of Shoot at Harvest / Fresh Weight at Harvest / Fresh Weight per Bud at Harvest: 28 days; for Fresh Weight at Harvest / Fresh Weight per Bud at Harvest: Malus
# Source text: as §3, with “field-grown Malus (apple) rootstocks” for “Prunus (stone fruit) plants in the greenhouse”, “HC), 15-0-0 (Erger®)” for “HC),”, “potted Malus rootstocks that were pruned to a height of 25 centimeters.” for “Prunus plants.”, “at 28” for “from 4-21”
# as §1, §2
smiles,measurement,setting,value
"NC1(C(=O)O)CC1 [ACC, 1-amino-1-cyclopropanecarboxylic acid]",0-100% BB,[1]; ACC 100 ppm,10 days
same,50% BB,[1]; ACC 100 ppm,11 days
same,Mean FW,[1]; ACC 100 ppm,0.52 g
same,0-100% BB,[1]; ACC 300 ppm,13 days
same,50% BB,[1]; ACC 300 ppm,10 days
same,Mean FW,[1]; ACC 300 ppm,1.84 g
same,0-100% BB,[1]; ACC 600 ppm,12 days
same,50% BB,[1]; ACC 600 ppm,10 days
same,Mean FW,[1]; ACC 600 ppm,1.28 g
same,50% BB,[2]; ACC 300 ppm,12 days
same,FW (grams),[2]; ACC 300 ppm,3.95 grams
same,50% BB,[2]; ACC 1000 ppm,7 days
same,FW (grams),[2]; ACC 1000 ppm,3.81 grams
same,0-100% BB,[3]; ACC 100 ppm,6 days
same,50% BB,[3]; ACC 100 ppm,10 days
same,Mean FW,[3]; ACC 100 ppm,1.01 g
same,0-100% BB,[3]; ACC 300 ppm,5 days
same,50% BB,[3]; ACC 300 ppm,10 days
same,Mean FW,[3]; ACC 300 ppm,1.46 g
same,0-100% BB,[3]; ACC 600 ppm,7 days
same,50% BB,[3]; ACC 600 ppm,9 days
same,Mean FW,[3]; ACC 600 ppm,2.57 g
same,50% BB,Malus (apple) rootstocks; ACC 300 ppm,14 days
same,Average Number of Broken Buds Per Malus Plant at Harvest,Malus (apple) rootstocks; ACC 300 ppm,6.13
same,Average Number of Broken Nodes Per Centimeter of Shoot at Harvest,Malus (apple) rootstocks; ACC 300 ppm,0.25
same,Fresh Weight at Harvest,Malus (apple) rootstocks; ACC 300 ppm,4.34 grams
same,Fresh Weight per Bud at Harvest,Malus (apple) rootstocks; ACC 300 ppm,0.66 grams
same,50% BB,Malus (apple) rootstocks; ACC 1000 ppm,16 days
same,Average Number of Broken Buds Per Malus Plant at Harvest,Malus (apple) rootstocks; ACC 1000 ppm,7.38
same,Average Number of Broken Nodes Per Centimeter of Shoot at Harvest,Malus (apple) rootstocks; ACC 1000 ppm,0.30
same,Fresh Weight at Harvest,Malus (apple) rootstocks; ACC 1000 ppm,3.05 grams
same,Fresh Weight per Bud at Harvest,Malus (apple) rootstocks; ACC 1000 ppm,0.46 grams
"N#CN [HC, hydrogen cyanamide, reference compound]",0-100% BB,[1]; HC 1% (v/v),6 days
same,50% BB,[1]; HC 1% (v/v),9 days
same,Mean FW,[1]; HC 1% (v/v),1.64 g
same,50% BB,[2]; HC 1% (v/v),7 days
same,FW (grams),[2]; HC 1% (v/v),4.76 grams
same,0-100% BB,[3]; HC 1% (v/v),6 days
same,50% BB,[3]; HC 1% (v/v),9 days
same,Mean FW,[3]; HC 1% (v/v),3.15 g
same,50% BB,Malus (apple) rootstocks; HC 1% (v/v),12 days
same,Average Number of Broken Buds Per Malus Plant at Harvest,Malus (apple) rootstocks; HC 1% (v/v),8.13
same,Average Number of Broken Nodes Per Centimeter of Shoot at Harvest,Malus (apple) rootstocks; HC 1% (v/v),0.325
same,Fresh Weight at Harvest,Malus (apple) rootstocks; HC 1% (v/v),7.99 grams
same,Fresh Weight per Bud at Harvest,Malus (apple) rootstocks; HC 1% (v/v),0.98 grams
